Measured values as given in publication PMC12042115 (mLife, 2025).
Like-named read-outs stand apart in the source and are kept apart here.

Tested on: wild‐type BCG cells
Format: cell-based, M. bovis BCG
Details: for Mean_Ratio (GDI5755_3d vs DMSO_3d): down-regulated, 3 d; for Mean Ratio: GDI5755_2d vs DMSO_2d; for Mean Ratio / Mean Ratio (GDI5755_2d vs DMSO_2d): up-regulated; for Mean Ratio (GDI5755_2d vs DMSO_2d): 2d

## O=C(Oc1ccc(Cl)cc1)c1ccc(N2CCOCC2)c([N+](=O)[O-])c1 [GDI‐5755]
Protein A0A0H3MBJ1, BCG_2011c (Rv1994c), HTH-type transcriptional regulator CmtR
  Mean_Ratio (GDI5755_3d vs DMSO_3d): 0.738
Protein A0A0H3MBK5 Phosphate-binding protein PstS3
  Mean Ratio: 1.29
Protein A0A0H3MBM4 NAD(P)H nitroreductase acg
  Mean Ratio: 1.30
Protein A0A0H3MBN2 Nuclear transport factor 2 domain-containing protein
  Mean Ratio: 1.27
Protein A0A0H3MBN6 Amidohydrolase 3 domain-containing protein
  Mean Ratio: 1.27
Protein A0A0H3MBR5 Probable acetyl-/propionyl-coa carboxylase (Beta subunit) accD2
  Mean Ratio (GDI5755_2d vs DMSO_2d): 1.32
Protein A0A0H3MBT4 Probable conserved lipoprotein LppL
  Mean Ratio: 1.32
Protein A0A0H3MBZ9 Probable conserved transmembrane protein alanine and leucine rich
  Mean Ratio: 1.27
Protein A0A0H3MC34, BCG_2260 (Rv2243), Malonyl CoA-acyl carrier protein transacylase fabD
  Mean_Ratio (GDI5755_3d vs DMSO_3d): 0.7
Protein A0A0H3MC70, BCG_1203c (Rv1141c), Probable enoyl-CoA hydratase echA11
  Mean_Ratio (GDI5755_3d vs DMSO_3d): 0.7
Protein A0A0H3MC82, BCG_2311 (Rv2295), CbrC family protein
  Mean_Ratio (GDI5755_3d vs DMSO_3d): 0.745
Protein A0A0H3MC88, BCG_2317 (Rv2301), Cutinase
  Mean_Ratio (GDI5755_3d vs DMSO_3d): 0.7
Protein A0A0H3MCA1 Alpha/beta hydrolase
  Mean Ratio: 1.25
Protein A0A0H3MCB3, BCG_1267 (Rv1207), Dihydropteroate synthase
  Mean_Ratio (GDI5755_3d vs DMSO_3d): 0.7
Protein A0A0H3MCC0 Probable tetronasin-transport atp-binding protein ABC transporter
  Mean Ratio: 1.26
Protein A0A0H3MCD2 Transmembrane ATP-binding protein ABC transporter
  Mean Ratio: 1.25
Protein A0A0H3MCL1, BCG_1383 (Rv1322), ATP/GTP-binding protein
  Mean_Ratio (GDI5755_3d vs DMSO_3d): 0.7
Protein A0A0H3MCL6, BCG_2443c, AAA+ ATPase domain-containing protein
  Mean_Ratio (GDI5755_3d vs DMSO_3d): 0.751
Protein A0A0H3MD23 Possible exported conserved protein
  Mean Ratio: 1.30
Protein A0A0H3MDI1, BCG_3731c (Rv1665), Possible chalcone synthase pks11
  Mean_Ratio (GDI5755_3d vs DMSO_3d): 0.7
Protein A0A0H3MDQ0, BCG_2970c (Rv2949c), Chorismate pyruvate-lyase
  Mean_Ratio (GDI5755_3d vs DMSO_3d): 0.746
Protein A0A0H3MDQ9, BCG_2994c (Rv2972c), Possible conserved membrane or exported protein
  Mean_Ratio (GDI5755_3d vs DMSO_3d): 0.756
Protein A0A0H3MDS7 Probable conserved lipoprotein lppZ
  Mean Ratio (GDI5755_2d vs DMSO_2d): 1.35
Protein A0A0H3ME30 Possible oxidoreductase
  Mean Ratio: 1.30
Protein A0A0H3ME93, BCG_1959 (Rv1920), Probable membrane protein
  Mean_Ratio (GDI5755_3d vs DMSO_3d): 0.752
Protein A0A0H3MEA5 methanethiol S-methyltransferase
  Mean Ratio: 1.26
Protein A0A0H3MEB3 HNH nuclease domain-containing protein
  Mean Ratio: 1.25
Protein A0A0H3MEK1, BCG_3412 (Rv3342), Possible methyltransferase (Methylase)
  Mean_Ratio (GDI5755_3d vs DMSO_3d): 0.7
Protein A0A0H3MER9, BCG_3475c (Rv3405c), HTH-type transcriptional repressor
  Mean_Ratio (GDI5755_3d vs DMSO_3d): 0.758
Protein A0A0H3MEW3, BCG_3538c (Rv3473c), Possible peroxidase bpoA
  Mean_Ratio (GDI5755_3d vs DMSO_3d): 0.749
Protein A0A0H3MF17 Serine protease Hip1
  Mean Ratio (GDI5755_2d vs DMSO_2d): 1.35
Protein A0A0H3MF23 Possible CoA-transferase (Beta subunit)
  Mean Ratio: 1.25
Protein A0A0H3MF38 Glycerol-3-phosphate dehydrogenase
  Mean Ratio: 1.31
Protein A0A0H3MF62, BCG_2297c (Rv2282c), Probable transcription regulator (LysR family)
  Mean_Ratio (GDI5755_3d vs DMSO_3d): 0.737
Protein A0A0H3MFB8, BCG_3726c, Protease
  Mean_Ratio (GDI5755_3d vs DMSO_3d): 0.739
Protein A0A0H3MFJ3 Transcriptional regulatory protein (Probably arsR-family)
  Mean Ratio: 1.25
Protein A0A0H3MFK9 DSBA-like thioredoxin domain-containing protein
  Mean Ratio (GDI5755_2d vs DMSO_2d): 1.33
Protein A0A0H3MFL5 histidine kinase
  Mean Ratio (GDI5755_2d vs DMSO_2d): 1.35
Protein A0A0H3MFN8 Probable O-antigen/lipopolysaccharide transport integral membrane protein ABC transporter rfbD
  Mean Ratio: 1.29
Protein A0A0H3MFR0, BCG_2539c (Rv2518c), L,D-transpeptidase 2, ldtB/L,D-transpeptidase LdtMt2
  Mean_Ratio (GDI5755_3d vs DMSO_3d): 0.7
Protein A0A0H3MFS0 Acyltransferase
  Mean Ratio: 1.28
Protein A0A0H3MFX4 Protein translocase subunit SecD
  Mean Ratio: 1.31
Protein A0A0H3MG15, BCG_2663 (Rv2636), O-phosphotransferase
  Mean_Ratio (GDI5755_3d vs DMSO_3d): 0.7
Protein A0A0H3MG43 Probable antibiotic-transport ATP-binding protein ABC transporter
  Mean Ratio: 1.28
Protein A0A0H3MG65 Probable conserved transmembrane protein
  Mean Ratio: 1.25
Protein A0A0H3MG92 Conserved 35 kDa alanine rich protein
  Mean Ratio: 1.27
Protein A0A0H3MGD9 Metal-dependent hydrolase
  Mean Ratio: 1.32
Protein A0A0H3MGM3, BCG_2905 (Rv2884), Probable transcriptional regulatory protein
  Mean_Ratio (GDI5755_3d vs DMSO_3d): 0.744
Protein A0A0H3MGP1 Probable transcriptional regulatory protein (Probably tetR-family)
  Mean Ratio: 1.30
Protein A0A0H3MGS1 Probable integral membrane protein
  Mean Ratio: 1.30
Protein A0A0H3MGU7, BCG_3025c (Rv3003c), Acetolactate synthase
  Mean_Ratio (GDI5755_3d vs DMSO_3d): 0.7
Protein A0A0H3MH35 Hydroxylase
  Mean Ratio: 1.30
Protein A0A0H3MH58, BCG_3141 (Rv3116), PRobable molybdenum cofactor biosynthesis protein moeB2
  Mean_Ratio (GDI5755_3d vs DMSO_3d): 0.7
Protein A0A0H3MH84, BCG_3167c (Rv3144c), PPE family protein
  Mean_Ratio (GDI5755_3d vs DMSO_3d): 0.7
Protein A0A0H3MHH8, BCG_3287c (Rv3258c), DUF3499 domain-containing protein
  Mean_Ratio (GDI5755_3d vs DMSO_3d): 0.757
Protein A0A0H3MHJ0 Probable metal cation-transporting P-type atpase C ctpC
  Mean Ratio (GDI5755_2d vs DMSO_2d): 1.38
Protein A0A0H3MIJ3, BCG_3667c (Rv3603c), Conserved hypothetical alanine and leucine rich protein
  Mean_Ratio (GDI5755_3d vs DMSO_3d): 0.7
Protein A0A0H3MJ41 Uncharacterized protein
  Mean Ratio: 1.29
Protein A1KF76, BCG_0293c (Rv0255c), Cobyric acid synthase
  Mean_Ratio (GDI5755_3d vs DMSO_3d): 0.7
Protein A1KFU9 Heparin-binding hemagglutinin
  Mean Ratio: 1.29
Protein A1KGJ8, BCG_0767 (Rv0717), Small ribosomal subunit protein uS14B
  Mean_Ratio (GDI5755_3d vs DMSO_3d): 0.746
Protein A1KHB8 Signal transduction histidine-protein kinase/phosphatase MprB
  Mean Ratio: 1.30
Protein A1KHH0, BCG_1089 (Rv1031), Potassium-transporting ATPase KdpC subunit
  Mean_Ratio (GDI5755_3d vs DMSO_3d): 0.7
Protein A1KI12 Sec-independent protein translocase protein TatB
  Mean Ratio: 1.27
Protein A1KI86, BCG_1358 (Rv1298), Large ribosomal subunit protein bL31
  Mean_Ratio (GDI5755_3d vs DMSO_3d): 0.7
